“And” between values parts separate entries of the source, which are not always exact repeats. Equal entries are not always repeated. Toxic doses and inconclusive results are not listed. Rule for the calls: active = survival T/C of 150% or more; inactive = T/C below 125% in these data.
Test system: P388 leukemia ip, CD2F1 mice, survival T/C
Test: NCI In Vivo Anticancer Drug Screen. Data for tumor model P388 Leukemia (intraperitoneal) in CD2F1 (CDF1) mice
Conditions: endpoint: median survival time, higher = longer survival
How it was run: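 Mice carrying the transplanted tumor received test compound or vehicle. Survival was recorded in each group, and the value is the treated-group measurement divided by that of the vehicle-treated control group.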

[1] = dose: 60.0 mg/kg/injection, schedule: Q01DX005 (ip), vehicle: Klucel (hydroxypropylcellulose) (HPC)
[2] = dose: 120.0 mg/kg/injection, schedule: Q01DX005 (ip), vehicle: Klucel (hydroxypropylcellulose) (HPC)
[3] = dose: 240.0 mg/kg/injection, schedule: Q01DX005 (ip), vehicle: Klucel (hydroxypropylcellulose) (HPC)
[4] = dose: 50.0 mg/kg/injection, schedule: Q01DX005 (ip), vehicle: saline with Tween-80
[5] = dose: 100.0 mg/kg/injection, schedule: Q01DX005 (ip), vehicle: saline with Tween-80
[6] = dose: 200.0 mg/kg/injection, schedule: Q01DX005 (ip), vehicle: saline with Tween-80
[7] = dose: 50.0 mg/kg/injection, schedule: Q01DX005 (ip), vehicle: Klucel (hydroxypropylcellulose) (HPC)
[8] = dose: 25.0 mg/kg/injection, schedule: Q01DX009 (ip), vehicle: saline with Tween-80
[9] = dose: 50.0 mg/kg/injection, schedule: Q01DX009 (ip), vehicle: saline with Tween-80
[10] = dose: 100.0 mg/kg/injection, schedule: Q01DX009 (ip), vehicle: saline with Tween-80
[11] = dose: 200.0 mg/kg/injection, schedule: Q01DX009 (ip), vehicle: saline with Tween-80
[12] = dose: 100.0 mg/kg/injection, schedule: Q04DX002 (ip), vehicle: saline with Tween-80
[13] = dose: 200.0 mg/kg/injection, schedule: Q04DX002 (ip), vehicle: saline with Tween-80
[14] = dose: 400.0 mg/kg/injection, schedule: Q04DX002 (ip), vehicle: saline with Tween-80
[15] = dose: 100.0 mg/kg/injection, schedule: Q01DX001 (ip), vehicle: saline with Tween-80
[16] = dose: 200.0 mg/kg/injection, schedule: Q01DX001 (ip), vehicle: saline with Tween-80
[17] = dose: 60.0 mg/kg/injection, schedule: Q01DX005 (ip), vehicle: saline with Tween-80

Measured: T/C

CC12OC(c3ccccc3)C(C)(OC1c1ccccc1)O2 (stereo unspecified)
inactive: [1] 102 % of control | [2] 100 % of control | [3] 98 % of control

Cc1cn2ccccc2c1-c1ccccc1
inactive: [4] 111 % of control | [5] 108 % of control | [6] 106 % of control

Cc1cc(N=Cc2c(CO)cnc(C)c2O)c(N=Cc2c(CO)cnc(C)c2O)cc1C.[Zn]
inactive: [4] 100 % of control | [5] 99 % of control | [6] 100 % of control

CC1=NN(c2cc(Cl)c(S(=O)(=O)O)cc2Cl)C(=O)C1N=Nc1ccc(S(=O)(=O)O)cc1 (stereo unspecified)
inactive: dose: 50.0 mg/kg/injection, schedule: Q01DX009 (ip), vehicle: saline 103 % of control | dose: 100.0 mg/kg/injection, schedule: Q01DX009 (ip), vehicle: saline 100 % of control | dose: 200.0 mg/kg/injection, schedule: Q01DX009 (ip), vehicle: saline 99 % of control

Clc1ccc2c(NCCC3CCCN4CCCCC34)ccnc2c1 (stereo unspecified)
inactive: dose: 12.5 mg/kg/injection, schedule: Q01DX005 (ip), vehicle: Klucel (hydroxypropylcellulose) (HPC) 100 % of control | dose: 25.0 mg/kg/injection, schedule: Q01DX005 (ip), vehicle: Klucel (hydroxypropylcellulose) (HPC) 103 % of control | [7] 100 % of control and 97 % of control

CCN1C(=O)CC(NC2CC(OC3C[C@](O)(C(C)=O)Cc4c(O)c5c(c(O)c43)C(=O)c3c(OC)cccc3C5=O)OC(C)C2O)C1=O (stereo partly specified)
inactive: dose: 6.25 mg/kg/injection, schedule: Q04DX003 (ip), vehicle: water 115 % of control | dose: 12.5 mg/kg/injection, schedule: Q04DX003 (ip), vehicle: water 103 % of control | dose: 25.0 mg/kg/injection, schedule: Q04DX003 (ip), vehicle: water 105 % of control | dose: 50.0 mg/kg/injection, schedule: Q04DX003 (ip), vehicle: water 105 % of control

CN(C)c1ccc(C(=O)C(O)c2ccccc2Cl)cc1 (stereo unspecified)
inactive: [8] 104 % of control | [9] 96 % of control | [10] 96 % of control | [11] 98 % of control

COC(=O)Nc1cn2ccc(Sc3ccccc3)cc2n1
inactive: dose: 50.0 mg/kg/injection, schedule: Q01DX009 (ip), vehicle: Klucel (hydroxypropylcellulose) (HPC) 103 % of control and 109 % of control | dose: 100.0 mg/kg/injection, schedule: Q01DX009 (ip), vehicle: Klucel (hydroxypropylcellulose) (HPC) 105 % of control and 122 % of control

Cc1cc(C)nc(NS(=O)(=O)c2ccc(N=c3c4ccccc4n(C)c4ccccc34)cc2)n1
inactive: [4] 90 % of control | [5] 97 % of control | [6] 90 % of control

Cn1cnc2cc3c(cc2c1=O)nc1n3CCOC1
inactive: dose: 100.0 mg/kg/injection, schedule: Q04DX003 (ip), vehicle: Klucel (hydroxypropylcellulose) (HPC) 103 % of control | dose: 200.0 mg/kg/injection, schedule: Q04DX003 (ip), vehicle: Klucel (hydroxypropylcellulose) (HPC) 100 % of control | dose: 400.0 mg/kg/injection, schedule: Q04DX003 (ip), vehicle: Klucel (hydroxypropylcellulose) (HPC) 93 % of control

O=c1ccc(=O)n(-c2ccccc2)[nH]1
inactive: dose: 6.25 mg/kg/injection, schedule: Q01DX009 (ip), vehicle: saline with Tween-80 114 % of control | dose: 12.5 mg/kg/injection, schedule: Q01DX009 (ip), vehicle: saline with Tween-80 100 % of control | [8] 118 % of control | [9] 119 % of control

CCC[N+](CCC)=c1ccc2nc3c(C)cc(N(CC)CC)cc3sc-2c1
inactive: dose: 0.78 mg/kg/injection, schedule: Q01DX009 (ip), vehicle: saline 108 % of control | dose: 1.56 mg/kg/injection, schedule: Q01DX009 (ip), vehicle: saline 112 % of control | dose: 3.13 mg/kg/injection, schedule: Q01DX009 (ip), vehicle: saline 113 % of control and 118 % of control | dose: 6.25 mg/kg/injection, schedule: Q01DX009 (ip), vehicle: saline 123 % of control | dose: 12.5 mg/kg/injection, schedule: Q01DX009 (ip), vehicle: saline 115 % of control

O=C(NC1CCCCC1)NS(=O)(=O)c1ccc(CCNC(=O)c2cccc3c2OCC3)cc1
inactive: [9] 100 % of control | [10] 99 % of control | [11] 98 % of control

CCc1nc(N)nc(N)c1-c1ccc(N(C)C)c(N=[N+]=[N-])c1
inactive: dose: 15.0 mg/kg/injection, schedule: Q01DX005 (ip), vehicle: Klucel (hydroxypropylcellulose) (HPC) 96 % of control | dose: 30.0 mg/kg/injection, schedule: Q01DX005 (ip), vehicle: Klucel (hydroxypropylcellulose) (HPC) 92 % of control | [1] 105 % of control and 113 % of control

CC(=O)OCC1OC(c2ccccc2)C/C(=N/O)C1OC(C)=O (stereo unspecified)
inactive: [7] 96 % of control | dose: 100.0 mg/kg/injection, schedule: Q01DX005 (ip), vehicle: Klucel (hydroxypropylcellulose) (HPC) 93 % of control | dose: 200.0 mg/kg/injection, schedule: Q01DX005 (ip), vehicle: Klucel (hydroxypropylcellulose) (HPC) 94 % of control

O=C(N=C(N=C(c1ccccc1)N1CCCCC1)c1ccccc1)c1ccccc1
inactive: [9] 96 % of control | [10] 93 % of control | [11] 95 % of control

Cc1coc2c1[C@H]1OC(=O)C3=CCC[C@H](C2)[C@@]31C
inactive: dose: 7.5 mg/kg/injection, schedule: Q01DX009 (ip), vehicle: saline with Tween-80 100 % of control | dose: 15.0 mg/kg/injection, schedule: Q01DX009 (ip), vehicle: saline with Tween-80 100 % of control | dose: 30.0 mg/kg/injection, schedule: Q01DX009 (ip), vehicle: saline with Tween-80 101 % of control | dose: 60.0 mg/kg/injection, schedule: Q01DX009 (ip), vehicle: saline with Tween-80 98 % of control

C=C1C(=O)OC2C1C(OC(=O)C(C)CC)CC1(O)COC3(O)C1C2C1(C)OC13 (stereo unspecified)
inactive: dose: 6.25 mg/kg/injection, schedule: Q01DX001 (ip), vehicle: Klucel (hydroxypropylcellulose) (HPC) 106 % of control | dose: 12.5 mg/kg/injection, schedule: Q01DX001 (ip), vehicle: Klucel (hydroxypropylcellulose) (HPC) 108 % of control | dose: 25.0 mg/kg/injection, schedule: Q01DX001 (ip), vehicle: Klucel (hydroxypropylcellulose) (HPC) 117 % of control and 90 % of control

[Ni+2].[O-]/C(=N\N=C\c1ccccn1)c1ccccc1O.[O-]/C(=N\N=C\c1ccccn1)c1ccccc1O
inactive: dose: 50.0 mg/kg/injection, schedule: Q04DX002 (ip), vehicle: saline with Tween-80 98 % of control | [12] 101 % of control | [13] 89 % of control

CCCCCCOc1cc(N)ccc1C(=O)O
inactive: [12] 98 % of control | [13] 100 % of control | [14] 92 % of control

CC(=O)Nc1ccccc1/C=C/c1ccccn1
inactive: [15] 106 % of control | [16] 106 % of control | dose: 400.0 mg/kg/injection, schedule: Q01DX001 (ip), vehicle: saline with Tween-80 95 % of control

O=C1CC2C(CC3OC(=O)C4C3C23COC4(O)C(O)C3)c2occc21 (stereo unspecified)
inactive: [15] 104 % of control | [16] 101 % of control

CCCC1(c2ccccc2)C(=O)NCNC1=O
inactive: dose: 20.0 mg/kg/injection, schedule: Q01DX005 (ip), vehicle: Klucel (hydroxypropylcellulose) (HPC) 100 % of control | dose: 40.0 mg/kg/injection, schedule: Q01DX005 (ip), vehicle: Klucel (hydroxypropylcellulose) (HPC) 99 % of control and 109 % of control | [1] 100 % of control and 116 % of control | [2] 93 % of control and 95 % of control | [3] 92 % of control

COC(=O)C1C(OCc2ccccc2)C2CCC1(OC)C=C2C (stereo unspecified)
inactive: [12] 91 % of control | [13] 98 % of control | [14] 91 % of control

N#CCc1c(F)c(F)c(F)c(F)c1F
inactive: dose: 30.0 mg/kg/injection, schedule: Q01DX005 (ip), vehicle: saline with Tween-80 100 % of control | [17] 99 % of control and 108 % of control

CCC(=O)Nc1ncc([N+](=O)[O-])s1
inactive: [8] 94 % of control | [9] 86 % of control | [11] 86 % of control

COc1cc(C(c2c(O)c3ccccc3oc2=O)c2c(O)c3ccccc3oc2=O)cc(OC)c1O
inactive: [17] 99 % of control | dose: 120.0 mg/kg/injection, schedule: Q01DX005 (ip), vehicle: saline with Tween-80 111 % of control

O=C(NO)C1(Br)CCCCC1Br (stereo unspecified)
inactive: dose: 100.0 mg/kg/injection, schedule: Q01DX001 (ip), vehicle: Klucel (hydroxypropylcellulose) (HPC) 91 % of control
